Measurements: patent US10251881B2, “Particulate materials” (priority 2002, dated 2019)
Structures can show the parent of a compound that is named as a salt.

What was measured:
Type in all cases: physicochemical
[1] = Flocculation volume of particulate drug suspended in propellant (HFA 134a or HFA 227ea)
Source text: Flocculation volume, sometimes referred to as “sedimentation volume”, can be measured by a conventional and relatively simple method. The substance under test, in particulate form, is suspended in the desired fluid vehicle at a suitable concentration. The mixture should be well agitated (typically, simply by shaking) to ensure a uniform dispersion of particles in the fluid at the start of measurement. Immediately after agitation ceases, timing begins. The mixture is left to stand, usually under ambient conditions, and the degree of settling or creaming of the solid observed over time. The flocculation volume of the mixture at a given point in time is the volume of fluid which is still occupied by the particulate dispersion, expressed as a percentage of the total fluid volume. A higher flocculation volume thus indicates less settling/creaming, which indicates improved performance. All references herein to flocculation volumes, unless otherwise stated, are to measurements made at 22° C. […] Measurements were taken at 22° C.

[2] = Particle size of the powders (AEROSIZER, SYMPATEC); details: powder; for MMAD: AEROSIZER
Source text: Particle sizes may be measured for instance using (a) an AEROSIZER™ time-of-flight instrument (which gives an aerodynamic equivalent particle diameter, MMAD) or (b) a laser diffraction sensor such as the HELOS™ system available from SYMPATEC™ GmbH, Germany (which provides a geometric projection equivalent MMD). MMADs may also be assessed using a cascade impactor. Volume mean diameters may be obtained in both cases using commercially available software packages.

[3] = Particle size of the powders (AEROSIZER, SYMPATEC)
[4] = HFA 134a, 1% w/v, 22° C., after 10 minutes
[5] = HFA 134a, averaged over the first 2 minutes
[6] = HFA 227ea, averaged over the first 2 minutes
[7] = HFA 134a, averaged over the first minute
[8] = HFA 227ea, 1% w/v, 22° C., after 5 minutes
[9] = HFA 227ea, averaged over the first minute
[10] = HFA 227ea, 1% w/v, 22° C., after 10 minutes
[11] = HFA 227ea, 1% w/v, 22° C., after 1 minute

Compound	flocculation volume [1, 4]	rate of change in flocculation volume (flocculation rate) [1, 5] [% per minute]	rate of change in flocculation volume (flocculation rate) [1, 6] [% per minute]	MMD ([2]; SYMPATEC) [μm]	further results
CCCCCCCCCCCCCCCC(=O)OC1CCCn2c1nc(C)c(CCN1CCC(c3noc4cc(F)ccc34)CC1)c2=O (single isomer, unassigned) [risperidone-(9-hydroxy)-palmitate sample A]	100%	0	−2.5	2.95	
CCCCCCCCCCCCCCCC(=O)OC1CCCn2c1nc(C)c(CCN1CCC(c3noc4cc(F)ccc34)CC1)c2=O (single isomer, unassigned) [risperidone-(9-hydroxy)-palmitate sample B]	100%	0	−3	2.5	
CCCCCCCCCCCCCCCC(=O)OC1CCCn2c1nc(C)c(CCN1CCC(c3noc4cc(F)ccc34)CC1)c2=O (single isomer, unassigned) [risperidone-(9-hydroxy)-palmitate sample C]	greater than 80%	−1	−3	3.5	
OCc1cc(C(O)CNCCCCCCOCCCCc2ccccc2)ccc1O (single isomer, unassigned) [salmeterol xinafoate sample A, Salmeterol xinafoate]		−3	−11		MMAD [2]: 5.3 μm
OCc1cc(C(O)CNCCCCCCOCCCCc2ccccc2)ccc1O (single isomer, unassigned) [salmeterol xinafoate sample B, salmeterol xinafoate]	greater than 98%	−0.2	−19		flocculation volume ([1]; HFA 134a, after 24 hours standing): greater than 98%; MMAD [2]: 1.6 μm
OCc1cc(C(O)CNCCCCCCOCCCCc2ccccc2)ccc1O (single isomer, unassigned) [salmeterol xinafoate sample C, salmeterol xinafoate]	30%				flocculation volume ([1]; HFA 134a, 1% w/v, 22° C., after 3 minutes): below 40%; rate of change in flocculation volume (flocculation rate) [1, 7]: −38 % per minute; flocculation volume [1, 8]: below 35%; rate of change in flocculation volume (flocculation rate) [1, 9]: −53 % per minute; MMAD [2]: 1.1 μm
CN1C[C@H](C(=O)N[C@]2(C)O[C@@]3(O)[C@@H]4CCCN4C(=O)[C@H](Cc4ccccc4)N3C2=O)C[C@@H]2c3cccc4[nH]cc(c34)C[C@H]21 [DHE SEDS® product, dihydroergotamine mesylate]			0		flocculation volume [1, 10]: 100%; creaming ([1]; HFA 227ea, after 24 hours standing): no visible creaming; MMAD [2]: 1.25 μm
CN1C[C@H](C(=O)N[C@]2(C)O[C@@]3(O)[C@@H]4CCCN4C(=O)[C@H](Cc4ccccc4)N3C2=O)C[C@@H]2c3cccc4[nH]cc(c34)C[C@H]21 [DHE micronized sample, dihydroergotamine mesylate]					flocculation volume [1, 11]: less than 20%; flocculation volume [1, 8]: less than 10%; rate of change in flocculation volume (flocculation rate) [1, 9]: −90 % per minute; MMD ([2]; instrument not stated): 15.1 μm
CC(C)C[C@H]1C(=O)N2CCC[C@H]2[C@]2(O)O[C@](NC(=O)[C@@H]3C=C4c5cccc6[nH]c(Br)c(c56)C[C@H]4N(C)C3)(C(C)C)C(=O)N12 [bromocriptine mesylate sample B, Bromocriptine mesylate]	53%				flocculation volume [1, 10]: 95%
CN1C[C@H](C(=O)N[C@]2(C)O[C@@]3(O)[C@@H]4CCCN4C(=O)[C@H](Cc4ccccc4)N3C2=O)C[C@@H]2c3cccc4[nH]cc(c34)C[C@H]21 [crystalline DHE (Examples 9), dihydroergotamine mesylate]					VMD ([2]; SYMPATEC): 2.8 μm; bulk powder density [3]: 0.14 g/mL
CCC(=O)O[C@]1(C(=O)SCF)[C@H](C)C[C@H]2[C@@H]3C[C@H](F)C4=CC(=O)C=C[C@]4(C)[C@@]3(F)[C@@H](O)C[C@@]21C [fluticasone propionate sample A, fluticasone propionate]	about 50%	−20		2.3	
CCC(=O)O[C@]1(C(=O)SCF)[C@H](C)C[C@H]2[C@@H]3C[C@H](F)C4=CC(=O)C=C[C@]4(C)[C@@]3(F)[C@@H](O)C[C@@]21C [fluticasone propionate sample B, fluticasone propionate]	greater than 90%	−1	−0.5	5.6	
CCC(=O)O[C@]1(C(=O)SCF)[C@H](C)C[C@H]2[C@@H]3C[C@H](F)C4=CC(=O)C=C[C@]4(C)[C@@]3(F)[C@@H](O)C[C@@]21C [fluticasone propionate sample C, fluticasone propionate]			0	2.3	
CCC(=O)O[C@]1(C(=O)SCF)[C@H](C)C[C@H]2[C@@H]3C[C@H](F)C4=CC(=O)C=C[C@]4(C)[C@@]3(F)[C@@H](O)C[C@@]21C [fluticasone propionate sample D, fluticasone propionate]	below 30%				rate of change in flocculation volume (flocculation rate) [1, 7]: −68 % per minute; flocculation volume ([1]; HFA 227ea, 1% w/v, 22° C., after 3 minutes): less than 30%; rate of change in flocculation volume (flocculation rate) [1, 9]: −40 % per minute; MMD ([2]; instrument not stated): 2.0 μm
CCCCCCCCCCCCCCCC(=O)OC1CCCn2c1nc(C)c(CCN1CCC(c3noc4cc(F)ccc34)CC1)c2=O (centres unmarked) [risperidone-(9-hydroxy)-palmitate]					flocculation volume ([1]; HFA 134a, 1% w/v, 22° C., after 1 minute): less than 20%; rate of change in flocculation volume (flocculation rate) [1, 7]: −152 % per minute; flocculation volume [1, 11]: less than 20%; rate of change in flocculation volume (flocculation rate) [1, 9]: −117 % per minute; MMD ([2]; instrument not stated): 8.1 μm
CC(C)(C)NCC(O)c1ccc(O)c(CO)c1 (centres unmarked) [salbutamol micronized sample, salbutamol]					flocculation volume ([1]; HFA 134a, 1% w/v, 22° C., after 2 minutes): less than 20%; rate of change in flocculation volume (flocculation rate) [1, 7]: −84 % per minute; flocculation volume ([1]; HFA 227ea, 1% w/v, 22° C., after 2 minutes): less than 20%; rate of change in flocculation volume (flocculation rate) [1, 9]: −55 % per minute; MMD ([2]; instrument not stated): 14.5 μm
Salbutamol sulphate [salbutamol sulphate SEDS® product]	greater than 70%	−10	−5	3.95	flocculation volume ([1]; HFA 227ea, 1% w/v, 22° C., after 8 minutes): greater than 70%; flocculation volume [1, 10]: greater than 60%
